Test results as given in ChEMBL document CHEMBL5096243, “Selective TASK-1 Inhibitor with a Defined Structure-Activity Relationship Reduces Cancer Cell Proliferation and Viability” (J Med Chem, 2022).
The source made the active and inactive calls. No cut-off for these calls is given here.

Key:
[1] = molecular target: T1, Potassium channel subfamily K member 9 (Homo sapiens, UniProt Q9NPC2); experiment: Inhibition of human TASK-3 expressed in Xenopus laevis oocytes assessed as inhibition of channel current at +40mV holding potential by two-electrode voltage clamp assay; assay type: cell-based, Oocyte
[2] = molecular target: T1, Potassium channel subfamily K member 9; experiment: Inhibition of human TASK-3 expressed in Xenopus laevis oocytes assessed as inhibition of channel current at 10 uM at +40mV holding potential by two-electrode voltage clamp assay; assay type: cell-based; details: Oocyte
MCF7 [3] = experiment: Antiproliferative activity against human MCF7 cells with shBP9 induced TASK-3 knockdown assessed as inhibition of cell proliferation at 0.148 uM incubated for 48 to 72 hrs by trypan blue exclusion method; assay type: functional, cell-based; details: time 48-72 hrs
MCF7 [4] = experiment: Antiproliferative activity against human MCF7 cells with shBP3 induced TASK-1 knockdown assessed as inhibition of cell proliferation at 0.148 uM incubated for 24 to 72 hrs by trypan blue exclusion method; assay type: functional, cell-based; details: time 24-72 hrs
MCF7 [5] = experiment: Antiproliferative activity against human MCF7 cells assessed as inhibition of cell proliferation at 10 uM incubated for 4 days by MTT assay; assay type: functional; set-up: scale not given: the % may be the effect or the level left; details: time 4 day
MCF7 [6] = experiment: Antiproliferative activity against human MCF7 cells with wild type TASK-1 expressing GFP induced by shGFP assessed as inhibition of cell proliferation at 0.148 uM incubated for 24 to 72 hrs by trypan blue exclusion method; assay type: functional, cell-based; details: time 24-72 hrs
[7] = molecular target: T2, Potassium channel subfamily K member 3 (Homo sapiens, UniProt O14649); experiment: Inhibition of human TASK-1 expressed in Xenopus laevis oocytes assessed as inhibition of channel current at +40mV holding potential by two-electrode voltage clamp assay; assay type: cell-based, Oocyte
Target sequence in this assay (O14649 whole entry): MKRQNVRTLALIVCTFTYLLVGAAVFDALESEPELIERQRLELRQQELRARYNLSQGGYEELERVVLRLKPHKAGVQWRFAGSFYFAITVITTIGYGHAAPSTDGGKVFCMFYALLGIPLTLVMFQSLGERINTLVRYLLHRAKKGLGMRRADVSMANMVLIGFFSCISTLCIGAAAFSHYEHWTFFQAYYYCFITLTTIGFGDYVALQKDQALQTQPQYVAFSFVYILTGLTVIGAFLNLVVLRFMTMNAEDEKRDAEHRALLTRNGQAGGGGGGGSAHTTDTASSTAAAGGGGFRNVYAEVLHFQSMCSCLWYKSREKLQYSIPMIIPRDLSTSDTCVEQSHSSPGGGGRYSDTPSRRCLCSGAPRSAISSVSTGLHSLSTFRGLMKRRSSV

[8] = molecular target: T2, Potassium channel subfamily K member 3; experiment: Inhibition of human TASK-1 expressed in Xenopus laevis oocytes assessed as inhibition of channel current at 10 uM at +40mV holding potential by two-electrode voltage clamp assay; assay type: cell-based; details: Oocyte
Target sequence in this assay (O14649 whole entry, looked up): as the sequence (O14649 whole entry) above

T1 sequence (Q9NPC2 whole entry): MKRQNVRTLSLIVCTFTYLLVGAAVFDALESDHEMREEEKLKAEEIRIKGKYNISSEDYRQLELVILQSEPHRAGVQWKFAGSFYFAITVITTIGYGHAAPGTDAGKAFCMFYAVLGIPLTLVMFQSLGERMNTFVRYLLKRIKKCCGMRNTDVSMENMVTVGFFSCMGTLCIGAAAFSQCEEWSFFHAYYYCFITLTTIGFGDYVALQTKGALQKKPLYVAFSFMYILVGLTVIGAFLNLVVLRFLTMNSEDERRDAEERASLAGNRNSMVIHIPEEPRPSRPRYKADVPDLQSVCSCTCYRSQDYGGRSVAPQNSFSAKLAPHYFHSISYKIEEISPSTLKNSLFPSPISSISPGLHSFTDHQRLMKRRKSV

| SMILES | inhibition [2] | IC50 [7] [µM] | inhibition [8] | further results |
| --- | --- | --- | --- | --- |
| CCc1ccccc1NC(=O)c1cccc(NC(=O)c2ccccc2)c1 | Active | 0.148 | Active | IC50 [1]: 1.75 µM; Activity (MCF7 [3]): Active; Activity (MCF7 [4]): Active; Activity (MCF7 [5]): 45%; Activity (MCF7 [6]): Active |
| O=C(Nc1cccc(C(=O)Nc2nccs2)c1)c1ccccc1 | Active | 0.388 | Active | IC50 [1]: 7.17 µM |
| COc1ccc(NC(=O)c2cccc(NC(=O)c3ccccc3)c2)cc1 | – | – | 10% | – |
| O=C(NCc1ccccc1)c1cccc(NC(=O)c2ccccc2)c1 | Active | – | Active | – |

The next lines start with results.

| inhibition [2] | IC50 [7] [µM] | inhibition [8] | SMILES | further results |
| --- | --- | --- | --- | --- |
| Active | – | Active | O=C(Nc1cccc(C(=O)Nc2ncccc2O)c1)c1ccccc1 | – |
| – | 0.2 | – | CCCS(=O)(=O)Nc1ccccc1C(=O)N[C@H](CC)c1ccc(OC)nc1 | – |
| – | – | 25% | O=C(Nc1cccc(C(=O)Nc2ccc(F)cc2)c1)c1ccccc1 | – |
| – | 7.6 | – | O=C(c1cccc(OC(F)(F)F)n1)N1CCN(Cc2c(-c3ccc(Cl)cc3)nc3ccccn23)CC1 | – |
| – | 9.5 | – | O=C(c1ccccc1F)N1CCN(Cc2c(-c3ccc(Br)cc3)nc3ccccn23)CC1 | – |
